The values that follow come from patent US5130302A, “Boronated nucleoside, nucleotide and oligonucleotide compounds, compositions and methods for using same” (Boron Bilogicals, Inc., priority 1989, dated 1992).

Values after ≈ are worked out from the molar mass of the structure shown.

One data set concerns Hela-S. Kind of data set: Cytotoxicity, Hela-S cervical carcinoma suspended. Type of data set: cell-based. As to conditions: Homo sapiens; Hela-S; 72 hr at 37° C.; read-out: ED50 (cytotoxicity), Hela-S. On the procedure:
7. Hela-S, ATCC-CCL 2.2, cervical carcinoma suspended, S. Schreiber and N. Ikemoto, supra; T. Puck et al., J. Exp. Med. 103. 273 (1956) (grown in Joklik+5% FBS, Ham's F12 +5% FBS).
(§1) The cytotoxic screens were conducted according to NIH protocols, see E. Huang et al., J. Pharm. Sci. 61, 108 (1972), with 10^4 cells, growth medium, antibiotics and drugs from 0.5 to 100 μg/ml final concentration. For the L1210, Hela-S, amd Tmolt, (i.e. the suspended cells), the incubations were conducted in sterile test tubes in a final volume of 1 ml for 72 hr at 37° C. in a CO2 incubator. The cells on the third day were still in log growth phase. The number of cells/ml are determined using trypan blue exclusion and a hemocytometer. See, e.g., R. Geran, supra. For solid tumors there is plated out in wells 1×10^4 cells with 1 ml of medium+antibiotics and the other components of growth. When the controls have converged (≈95%) then the density of the cells is estimated and the ED50 values calculated.

The test system of data set [1] is SW480 human colorectal carcinoma. Description: Cytotoxicity, colon adenocarcinoma SW480 human colorectal carcinoma. It is filed as cell-based. The procedure: (§2) More specifically, the cytotoxic activity of the boron adducts of the present invention was tested on the following neoplastic cell lines:
3. Colon adenocarcinoma SW480 human colorectal carcinoma. A. Leibovitz et al., Cancer Res. 36, 4562 (1976) (grown in L15+10% FBS).
as §1

The test system of another data set is P388. Kind of data set: Cytotoxicity, P388. Type of data set: cell-based. As to conditions: Mus musculus, P388; read-out: ED50 (cytotoxicity), P388. The procedure: as §1
The test system of another data set is inflammatory response. Description: Anti-inflammatory activity, carrageenan-injected hind foot. Type of data set: in vivo, CF1 male mice. As to conditions: 8 mg/kg/day; intraperitoneal, 3 hours and 30 minutes prior to carrageenan; mice. On the procedure: CF1 male mice (~25 g) were administered test drugs at 5-40 mg/kg in 0.05% Tween 80--H2 O intraperitoneally 3 hours prior to and 30 minutes prior to the injection of 0.2 ml of 1% carrageenan in 0.9% saline into the plantar surface of the right hind foot. Saline was injected into the left hind foot, which serves as a base line. After 3 hours, both feet were excised at the tibiotarsal (ankle) joint according to standard procedures. See C. Winter et al., Proc. Soc. Expt. Biol Med. 544, 111 (1962); A. Roszkawski et al., J. Pharm. Exp. Ther. 179, 114 (1971). Control mice afforded a 78±3 mg increase in paw weight.

Data set [2] has as its system Lung bronchogenic MB-9812. Kind of data set: Cytotoxicity, lung bronchogenic MB-9812. It is filed as cell-based. As to conditions: Lung bronchogenic MB-9812; read-out: ED50 (cytotoxicity), Lung Bronchogenic. The procedure: 4. Lung bronchogenic MB-9812, S. Aronson et al., Expt. Cell Res. 61, 1 (1970) (grown in EMEM+10% FBS+NEAA).
as §1

Data set [3] concerns Serum triglyceride levels. Kind of data set: Antihyperlipidemic activity, serum triglyceride. It is filed as in vivo, male CF1 mice. As to conditions: 8 mg/kg/day; intraperitoneal, bled on day 16; mice. The procedure: (§3) Compounds to be tested were suspended in 1% aqueous carboxymethylcellulose,homogenized and administered to male CF1 mice (25 g) intraperitoneally for 16d. On days 9 and 16, blood was obtained by tail vein bleeding, and the serum was separated by centrifugation for three minutes. The serum cholesterol levels were determined by a modification of the Liebermann--Burchard reaction in accordance with known techniques. See A. Ness, et al., Clin. Chim. Acta 10, 229 (1964). Serum triglyceride levels were determined with a commercial kit, the Fisher Hycel Triglyceride Test Kit, for a different group of animals bled on day 16.

The subject of data set [4] is Human glioma cell EH 118 MG. Kind of data set: Cytotoxicity, human glioma cell EH 118 MG. It is filed as cell-based. As to conditions: Glioma EH 118 MG, read-out: ED50 (cytotoxicity), Glioma. On the procedure:
9. Human glioma cell EH 118 MG transformed stain of Rous sarcoma virus, J. Lutton et al., J. Biol. Chem. 254, 11181 (1979) (grown in DMEM-H+10% FCS).
as §1

The test system of data set [5] is KB epidermoid oral nesopharnyx. Kind of data set: Cytotoxicity, KB epidermoid oral nasopharynx. It is filed as cell-based. As to conditions: Homo sapiens, read-out: ED50 (cytotoxicity), KB. The procedure: 6. KB epidermoid oral nesopharnyx. R. Geran, supra: H. Eagle, Proc. Soc. Expt.
Biol. 89, 362 (1955)(grown in EMEM +5% calf serum).
as §1

A short description of data set [6]: Stability in aqueous medium by HPLC. Type of data set: physicochemical. The procedure: By HPLC, compounds 3a, 3b, and 3d in aqueous medium (0.01 M TEAAc) are >94% stable over a period of 168 h. […], however, is >50% decomposed during this period.
A further data set relates to serum cholesterol levels. Description: Antihyperlipidemic activity, serum cholesterol. As to conditions: 8 mg/kg/day; intraperitoneal for 16d; mice. Type of data set: in vivo, male CF1 mice. The procedure: as §3
For data set [7], the system named is Tmolt acute lymphoblastic T cell leukemia. Kind of data set: Cytotoxicity, Tmolt acute lymphoblastic T cell leukemia. Type of data set: cell-based. The procedure: as §2
2. Tmolt^S acute lymphoblastic T cell leukemia, S. Schreiber and N. Ikemoto, Tett. Lett 29, 3211 (1988) (grown in RPMI - 1640+10% FBS).
as §1

A further data set relates to Human Osteosarcoma TE418. Description: Cytotoxicity, human osteosarcoma TE418. Type of data set: cell-based. As to conditions: Osteosarcoma TE418, read-out: ED50 (cytotoxicity), Osteo sarcoma. On the procedure: 5. Human Osteosarcoma TE418. H. Smith et al., Int. J. Cancer 17, 219 (1976) (grown in DMEM+10% FBS).
as §1

The test system of data set [8] is L1210 lymphoid leukemia cells. Kind of data set: Cytotoxicity, L1210 lymphoid leukemia cells. It is filed as cell-based. As to conditions: Mus musculus; L1210; 72 hr at 37° C.; read-out: ED50 (cytotoxicity), L1210. On the procedure:
as §2
1. L1210 lymphoid leukemia cells, R. Geran et al., Cancer Chemotherapy Reports 3, 7 (1972).(grown in RPMI+15% FBS+antibiotics).
as §1

In the case of `N#C[BH2-][n+]1c(N)ccn([C@H]2C[C@H](O)[C@@H](CO)O2)c1=O` [Compound 3d, 2' Deoxycytidine-N3-cyanoborane], the IC50 was 3.37 µg/mL (≈ 12.7 µM) in the data set with Hela-S; 2.96 µg/mL (≈ 11.1 µM) in [1] (Homo sapiens, SW480, read-out: ED50 (cytotoxicity), Adeno Carcinoma SW480); 3.17 µg/mL (≈ 11.9 µM) in the data set with P388; 3.73 µg/mL (≈ 14 µM) in data set [2]; 4.39 µg/mL (≈ 16.5 µM) in data set [4]; 5.46 µg/mL (≈ 20.5 µM) in data set [5]. For the same compound, the IC50 is 1.13 µg/mL (≈ 4.25 µM) in data set [7] (T-cell, Tmolt, 72 hr at 37° C., read-out: ED50 (cytotoxicity), Tmolt); 4.63 µg/mL (≈ 17.4 µM) in the data set on Human Osteosarcoma TE418; 2.61 µg/mL (≈ 9.81 µM) in data set [8]. In addition, the “activity in human colorectal adenocarcinoma screen” value in [1] (in words) was “potent activity”. Further, the “Antiinflammatory Activity, % inhibition” value in the data set on inflammatory response turned out to be 52%. Moreover, the “Hypolipidemic: Triglyceride Inhibition, % inhibition” value in data set [3] worked out at 23%. Also, the remaining at 168 h in data set [6] (0.01 M TEAAc, period of 168 h, HPLC, read-out: stable in aqueous medium) was over 94%. Further, the “stability in aqueous medium” value in [6] (in words, aqueous medium) is given as “good stability”. The “Hypolipidemic: Cholesterol Inhibition, % inhibition” value in the data set with serum cholesterol levels is recorded as 38%. Moreover, the “activity in T molt-3 screen” value in [7] (in words) is given as “potent activity”.
